Patent US6172185A, “Antimicrobial cationic peptide derivatives of bactenecin” (priority 1998, dated 2001)
Where a SMILES comes first, the peptide text is derived from it. Where no end group is shown, it is not given here.

Columns and labels:
E. coli DC2 = assay type: cell-based, Escherichia coli; settings: E. coli DC2, 0.1M KCl
Method: The minimal inhibitory concentration (MIC) of peptides was determined by a modified two-fold microtitre broth dilution method modified from that of Steinberg et al (Steinberg, Antimicrob. Agents Chemother. 41:1738, 1997). Using the classical method (Amsterdam, Antibiotics in Laboratory Medicine (Lorian, V., ed) pp. 72-78, 1991), higher concentrations of peptides tend to precipitate in the LB broth, thus the concentrations of peptides in the sequential wells are not accurate. Also the peptides stick to the most readily available (tissue-culture treated polystyrene) 96-well microtitre plates. Therefore the 2× series of dilutions was performed in Eppendoff tubes (polypropylene) before mixing with LB broth. Serial of two fold dilutions of peptides ranging from 640 μg/ml to 1.25 μg/ml were made in 0.2% BSA, 0.01% acetic acid buffer in the Eppendoff tubes. Ten μl of each concentration was added to each corresponding well of a 96-well microtiter plate (polypropylene cluster; Costar Corporation, Cambridge, Mass.). Bacteria were grown overnight and diluted 10-5 into fresh LB broth or Todd Hewitt broth for Streptococcus. LB medium contained 10 g/1l tryptone and 5 g/yeast extract, with no salt. Todd Hewitt contained 500 g/l beef heart infusion, 20 g/l bacto neopeptone, 2 g/l bacto dextrose, 2 g/l sodium chloride, 0.4 g/l disodium phosphate, 2.5 g/l sodium carbonate. One hundred […] containing about 10^4-10^5 CFU/ml of tested bacteria was added to each well. […]
It has been proposed that the antibacterial target of cationic peptides be at the cytoplasmic membrane. […] Once inside the cells, diS-C3-(5) becomes concentrated and self-quenches its own fluorescence. If peptides form channels or otherwise disrupt the membrane, the membrane potential will be dissipated, and the DiS-C3-(5) will be released into the medium causing the fluorescence to increase, as can be detected by fluorescent spectrometry. […] Therefore the MICs of bactenecin, reduced bactenecin and bac2S in the presence of 0.1M KCl were determined and shown to be 8-16 μg/ml (i.e. 4 to 8 fold higher than in low salt). […]

C. xerosis = assay: MIC, modified two-fold microtitre broth dilution; assay type: cell-based, Corynebacterium xerosis
Description: (§1) Bacterial strains for antimicrobial activity testing included Escherichia coli UB1005 and its antibiotic supersusceptible derivative DC2 (Richmond et al., Antimicrob. Agents Chemother. 10:215, 1976), Pseudomonas aeruginosa K799 and its antibiotic-supersusceptible derivative Z61 (Angus et al., Antimicrob. Agents Chemother. 21:299, 1982), Salmonella typhimurium 14028s and its defensin-supersusceptible derivative MS7953s (Fields et al., Science, 243:1059, 1989), Staphylococcus aureus ATCC25923 and a clinical isolate Staphylococcus aureus SAP1007. Other Gram-positive bacterial strains include Staphylococcus epidermidis (clinical isolate) and Enterococcus faecalis ATCC29212, Listeria monocytogenes, Corynebacterium xerosis, Streptococcus pneumoniae ATTC49619, Streptococcus pyogenes ATTC19615, Streptococcus mitis.
(§2) The minimal inhibitory concentration (MIC) of peptides was determined by a modified two-fold microtitre broth dilution method modified from that of Steinberg et al (Steinberg, Antimicrob. Agents Chemother. 41:1738, 1997). Using the classical method (Amsterdam, Antibiotics in Laboratory Medicine (Lorian, V., ed) pp. 72-78, 1991), higher concentrations of peptides tend to precipitate in the LB broth, thus the concentrations of peptides in the sequential wells are not accurate. Also the peptides stick to the most readily available (tissue-culture treated polystyrene) 96-well microtitre plates. Therefore the 2× series of dilutions was performed in Eppendoff tubes (polypropylene) before mixing with LB broth. Serial of two fold dilutions of peptides ranging from 640 μg/ml to 1.25 μg/ml were made in 0.2% BSA, 0.01% acetic acid buffer in the Eppendoff tubes. Ten μl of each concentration was added to each corresponding well of a 96-well microtiter plate (polypropylene cluster; Costar Corporation, Cambridge, Mass.). Bacteria were grown overnight and diluted 10-5 into fresh LB broth or Todd Hewitt broth for Streptococcus. LB medium contained 10 g/1l tryptone and 5 g/yeast extract, with no salt. Todd Hewitt contained 500 g/l beef heart infusion, 20 g/l bacto neopeptone, 2 g/l bacto dextrose, 2 g/l sodium chloride, 0.4 g/l disodium phosphate, 2.5 g/l sodium carbonate. One hundred […] containing about 10^4-10^5 CFU/ml of tested bacteria was added to each well. The plate was incubated at 37° C. overnight. The MIC was taken as the concentration at which greater than 90% of growth inhibition was observed.

Strep. pyogenes = assay: MIC, modified two-fold microtitre broth dilution; assay type: cell-based, Streptococcus pyogenes; settings: for MIC Strep. pyogeness: Table IID, linear (Group 2): reduced forms of the peptides, Bac (Oxidized) as comparator; for MIC Strep. pyogenes: Table IIIB, non-linear positive-charge modification derivatives
Description: as §1, §2

Staph. aureus = assay: MIC, modified two-fold microtitre broth dilution; assay type: cell-based, Staphylococcus aureus
Description: as §1, §2

Listeria monocytogenes = assay: MIC, modified two-fold microtitre broth dilution; assay type: cell-based
Description: as §1, §2

Strep. mitis = assay: MIC, modified two-fold microtitre broth dilution; assay type: cell-based, Streptococcus mitis; settings: for MIC Strep. mitis: Table IID, linear (Group 2): reduced forms of the peptides, Bac (Oxidized) as comparator; for MIC S. mitis: Table IIIB, non-linear positive-charge modification derivatives
Description: as §1, §2

E.facaelis = assay: MIC, modified two-fold microtitre broth dilution; assay type: cell-based, Enterococcus faecalis
Description: as §1, §2

Staph. epidermidis = assay: MIC, modified two-fold microtitre broth dilution; assay type: cell-based, Staphylococcus epidermidis
Description: as §1, §2

S.typhimurium = assay: MIC, modified two-fold microtitre broth dilution; assay type: cell-based, Salmonella typhimurium
Description: as §1, §2

Strep. pneumoniae = assay: MIC, modified two-fold microtitre broth dilution; assay type: cell-based, Streptococcus pneumoniae; settings: for MIC Strep. pneumonia: Table IID, linear (Group 2): reduced forms of the peptides, Bac (Oxidized) as comparator; for MIC S. pneumonia: Table IIIB, non-linear positive-charge modification derivatives
Description: as §1, §2

P.aeruginosa = assay: MIC, modified two-fold microtitre broth dilution; assay type: cell-based, Pseudomonas aeruginosa
Description: as §1, §2

E.coli UB1005 = assay: MIC, modified two-fold microtitre broth dilution; assay type: cell-based, Escherichia coli
Description: as §1, §2

[1] = Table IID, linear (Group 2): reduced forms of the peptides, Bac (Oxidized) as comparator
[2] = Table IIIB, non-linear positive-charge modification derivatives
[3] = Table IIC, linear (Group 2): reduced forms of the peptides, Bac (Oxidized) as comparator
[4] = table IIA, non-linear positive-charge modification derivatives

Molecule | Minimal Agglutinating Concentration, Oxidized Form (Human Red Blood Cells) | MIC in the presence of 0.1M KCl (E. coli DC2) | MIC C. xerosis (C. xerosis; [1]) | MIC C. xerosis (C. xerosis; [2]) | MIC Strep. pyogeness (Strep. pyogenes) | MIC Strep. pyogenes (Strep. pyogenes) | MIC Staph. aureus (Staph. aureus; [1]) | MIC Staph. aureus (Staph. aureus; [2]) | MIC Listeria (Listeria monocytogenes; [1]) | MIC Listeria (Listeria monocytogenes; [2]) | MIC Strep. mitis (Strep. mitis) | MIC S. mitis (Strep. mitis) | MIC E.facaelis (E.facaelis; [1]) | MIC E.facaelis (E.facaelis; [2]) | MIC Staph. epidermidis (Staph. epidermidis; [1]) | MIC Staph. epidermidis (Staph. epidermidis; [2]) | MIC S. typhimurium (S.typhimurium; [3]) | MIC S. typhimurium (S.typhimurium; [4]) | MIC Strep. pneumonia (Strep. pneumoniae) | MIC S. pneumonia (Strep. pneumoniae) | other results
CC[C@H](C)[C@H](NC(=O)[C@H](CCCNC(=N)N)NC(=O)[C@H](CS)NC(=O)[C@H](CC(C)C)NC(=O)[C@@H](N)CCCNC(=N)N)C(=O)N[C@H](C(=O)N[C@H](C(=O)N[C@H](C(=O)N[C@@H](CCCNC(=N)N)C(=O)N[C@H](C(=O)N[C@@H](CS)C(=O)N[C@@H](CCCNC(=N)N)C(=O)O)C(C)C)[C@@H](C)CC)C(C)C)C(C)C [Bac (Reduced), RLCRIVVIRVCR] (H-RLCRIVVIRVCR-OH) | 16 µg/mL | 8 to 16 µg/mL | – | – | – | – | – | – | – | – | – | – | – | – | – | – | – | – | – | – | concentration causing agglutination of human red blood cells (Human Red Blood Cells): 16000 to 32000 ng/mL
RRLCRIVVIRVCRR [Bac 2R, tested oxidized and reduced] | 64 µg/mL | – | 0.25 µg/mL | 1 µg/mL | 16 µg/mL | 8 µg/mL | > 64 µg/mL | 64 µg/mL | 0.5 µg/mL | < 0.125 µg/mL | 0.5 µg/mL | 0.5 µg/mL | 4 µg/mL | 32 µg/mL | 4 µg/mL | 8 µg/mL | 32 µg/mL | 4 µg/mL | > 64 µg/mL | > 64 µg/mL | MIC against S. typhimurium, times better than native bactenecin (S.typhimurium): 2 X; MIC against P. aeruginosa, times better than native bactenecin (P.aeruginosa): 2 X; MIC P. aeruginosa (P.aeruginosa; [3]): 16 µg/mL; MIC P. aeruginosa (P.aeruginosa; [4]): 4 µg/mL; Minimal Agglutinating Concentration, Reduced Form (Human Red Blood Cells): 32 µg/mL; MIC E.coli UB1005 (E.coli UB1005; [3]): 4 µg/mL; MIC E.coli UB1005 (E.coli UB1005; [4]): 2 µg/mL
RRRLCPIVIRVCRR [Bac 3R, P, (V), tested oxidized and reduced] | > 64 µg/mL | – | 0.5 µg/mL | 4 µg/mL | 8 µg/mL | 4 µg/mL | > 64 µg/mL | > 64 µg/mL | 1 µg/mL | 1 µg/mL | 1 µg/mL | 1 µg/mL | 32 µg/mL | > 64 µg/mL | 8 µg/mL | 16 µg/mL | 32 µg/mL | 8 µg/mL | > 64 µg/mL | > 64 µg/mL | MIC P. aeruginosa (P.aeruginosa; [3]): 32 µg/mL; MIC P. aeruginosa (P.aeruginosa; [4]): 8 µg/mL; Minimal Agglutinating Concentration, Reduced Form (Human Red Blood Cells): 32 µg/mL; MIC E.coli UB1005 (E.coli UB1005; [3]): 4 µg/mL; MIC E.coli UB1005 (E.coli UB1005; [4]): 2 µg/mL
RLSRIVVIRVSR [Bac 2S, RLSRIVVIRVSR] | > 64 µg/mL | 8 to 16 µg/mL | – | – | – | – | – | – | – | – | – | – | – | – | – | – | – | – | – | – | –
